PubChem BioAssay AID248 (DTP/NCI, 2004)
Several values for one entry are separate records, joined by “and”; a condition that tells them apart may be missing. Equal entries are not always repeated. Toxic doses and inconclusive results are not listed. Rule as the data show it: active = T/C of 150% or more; inactive = T/C below 125%.

System: L1210 leukemia ip in BDF1 mice, survival T/C
Experiment: NCI In Vivo Anticancer Drug Screen. Data for tumor model L1210 Leukemia (intraperitoneal) in B6D2F1 (BDF1) mice
Settings: higher = longer survival
Outline: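 Value reflects the ratio of survival in compound-treated mice to survival in vehicle-treated controls, with both groups carrying the same transplanted tumor.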

[1] = endpoint: mean survival time, dose: 100.0 mg/kg/injection, schedule: Q01DX001 (ip), vehicle: carboxymethylcellulose (CMC)
[2] = endpoint: mean survival time, dose: 200.0 mg/kg/injection, schedule: Q01DX001 (ip), vehicle: carboxymethylcellulose (CMC)
[3] = endpoint: mean survival time, dose: 400.0 mg/kg/injection, schedule: Q01DX001 (ip), vehicle: carboxymethylcellulose (CMC)
[4] = endpoint: mean survival time, dose: 100.0 mg/kg/injection, schedule: Q01DX001 (ip), vehicle: saline
[5] = endpoint: mean survival time, dose: 200.0 mg/kg/injection, schedule: Q01DX001 (ip), vehicle: saline
[6] = endpoint: mean survival time, dose: 400.0 mg/kg/injection, schedule: Q01DX001 (ip), vehicle: saline
[7] = endpoint: mean survival time, dose: 100.0 mg/kg/injection, schedule: Q01DX009 (ip), vehicle: saline with Tween-80
[8] = endpoint: mean survival time, dose: 200.0 mg/kg/injection, schedule: Q01DX009 (ip), vehicle: saline with Tween-80
[9] = endpoint: mean survival time, dose: 400.0 mg/kg/injection, schedule: Q01DX009 (ip), vehicle: saline with Tween-80
[10] = endpoint: mean survival time, dose: 100.0 mg/kg/injection, schedule: Q01DX001 (ip), vehicle: Klucel (hydroxypropylcellulose) (HPC)
[11] = endpoint: mean survival time, dose: 200.0 mg/kg/injection, schedule: Q01DX001 (ip), vehicle: Klucel (hydroxypropylcellulose) (HPC)
[12] = endpoint: mean survival time, dose: 100.0 mg/kg/injection, schedule: Q04DX002 (ip), vehicle: Klucel (hydroxypropylcellulose) (HPC)
[13] = endpoint: mean survival time, dose: 200.0 mg/kg/injection, schedule: Q04DX002 (ip), vehicle: Klucel (hydroxypropylcellulose) (HPC)
[14] = endpoint: mean survival time, dose: 400.0 mg/kg/injection, schedule: Q04DX002 (ip), vehicle: Klucel (hydroxypropylcellulose) (HPC)
[15] = endpoint: mean survival time, dose: 100.0 mg/kg/injection, schedule: Q01DX009 (ip), vehicle: saline
[16] = endpoint: mean survival time, dose: 100.0 mg/kg/injection, schedule: Q04DX003 (ip), vehicle: saline
[17] = endpoint: mean survival time, dose: 200.0 mg/kg/injection, schedule: Q01DX009 (ip), vehicle: saline
[18] = endpoint: mean survival time, dose: 200.0 mg/kg/injection, schedule: Q04DX003 (ip), vehicle: saline
[19] = endpoint: mean survival time, dose: 400.0 mg/kg/injection, schedule: Q04DX003 (ip), vehicle: saline
[20] = endpoint: mean survival time, dose: 100.0 mg/kg/injection, schedule: Q04DX003 (ip), vehicle: saline with Tween-80
[21] = endpoint: mean survival time, dose: 200.0 mg/kg/injection, schedule: Q04DX003 (ip), vehicle: saline with Tween-80
[22] = endpoint: mean survival time, dose: 12.5 mg/kg/injection, schedule: Q01DX009 (ip), vehicle: saline
[23] = endpoint: mean survival time, dose: 25.0 mg/kg/injection, schedule: Q01DX009 (ip), vehicle: saline
[24] = endpoint: mean survival time, dose: 50.0 mg/kg/injection, schedule: Q01DX009 (ip), vehicle: saline
[25] = endpoint: mean survival time, dose: 100.0 mg/kg/injection, schedule: Q04DX003 (ip), vehicle: Klucel (hydroxypropylcellulose) (HPC)
[26] = endpoint: mean survival time, dose: 200.0 mg/kg/injection, schedule: Q04DX003 (ip), vehicle: Klucel (hydroxypropylcellulose) (HPC)
[27] = endpoint: mean survival time, dose: 400.0 mg/kg/injection, schedule: Q04DX003 (ip), vehicle: Klucel (hydroxypropylcellulose) (HPC)
[28] = endpoint: mean survival time, dose: 100.0 mg/kg/injection, schedule: Q01DX009 (ip), vehicle: Klucel (hydroxypropylcellulose) (HPC)
[29] = endpoint: mean survival time, dose: 200.0 mg/kg/injection, schedule: Q01DX009 (ip), vehicle: Klucel (hydroxypropylcellulose) (HPC)
[30] = endpoint: mean survival time, dose: 400.0 mg/kg/injection, schedule: Q01DX009 (ip), vehicle: Klucel (hydroxypropylcellulose) (HPC)

Measured: T/C

COc1ccc(NC(=O)N(O)C2(C#N)CCCCC2)cc1
inactive: [1] 98 % of control | [2] 94 % of control | [3] 88 % of control

S=P(Nc1ccccc1)(Nc1ccccc1)Oc1cc(Cl)c(Cl)cc1Cl
inactive: [4] 92 % of control | [5] 93 % of control | [6] 92 % of control

CCC(C(N)=O)C1=CCCCC1 (stereo not drawn)
inactive: [7] 95 % of control | [8] 93 % of control | [9] 98 % of control

CCn1ccc2c(N)ncnc21
inactive: endpoint: mean survival time, dose: 50.0 mg/kg/injection, schedule: Q01DX001 (ip), vehicle: saline 95 % of control

CC(=O)Nc1ccc(S(=O)(=O)NC2CCCCC2)cc1
inactive: endpoint: mean survival time, dose: 50.0 mg/kg/injection, schedule: Q01DX001 (ip), vehicle: Klucel (hydroxypropylcellulose) (HPC) 94 % of control | [10] 97 % of control | [11] 100 % of control

C/C(=N\OC(=O)c1ccc([N+](=O)[O-])cc1)C(C)(C)C
inactive: [12] 88 % of control | [13] 100 % of control | [14] 96 % of control

CCOC(=O)c1ccc(NCC(C)(C)[N+](=O)[O-])cc1
inactive: [15] 102 % of control | [16] 95 % of control | [17] 105 % of control | [18] 107 % of control | endpoint: mean survival time, dose: 400.0 mg/kg/injection, schedule: Q01DX009 (ip), vehicle: saline 96 % of control and 105 % of control | [19] 91 % of control

O=S(=O)(c1ccccc1)N1CC1CBr (stereo not drawn)
inactive: endpoint: mean survival time, dose: 100.0 mg/kg/injection, schedule: Q01DX001 (ip), vehicle: other 105 % of control | endpoint: mean survival time, dose: 200.0 mg/kg/injection, schedule: Q01DX001 (ip), vehicle: other 100 % of control | endpoint: mean survival time, dose: 400.0 mg/kg/injection, schedule: Q01DX001 (ip), vehicle: other 108 % of control

CCNC(=O)OCCN1C(=O)C2C3CCC(O3)C2C1=O (stereo not drawn)
inactive: endpoint: mean survival time, dose: 100.0 mg/kg/injection, schedule: Q01DX001 (ip), vehicle: saline with Tween-80 98 % of control | [20] 100 % of control | endpoint: mean survival time, dose: 200.0 mg/kg/injection, schedule: Q01DX001 (ip), vehicle: saline with Tween-80 103 % of control | [21] 100 % of control | endpoint: mean survival time, dose: 400.0 mg/kg/injection, schedule: Q01DX001 (ip), vehicle: saline with Tween-80 113 % of control | endpoint: mean survival time, dose: 400.0 mg/kg/injection, schedule: Q04DX003 (ip), vehicle: saline with Tween-80 97 % of control

CCCCNP(=O)(OCC)OCC
inactive: [22] 91 % of control | endpoint: mean survival time, dose: 12.5 mg/kg/injection, schedule: Q04DX003 (ip), vehicle: saline 101 % of control | [23] 104 % of control | endpoint: mean survival time, dose: 25.0 mg/kg/injection, schedule: Q04DX003 (ip), vehicle: saline 113 % of control | [24] 104 % of control | endpoint: mean survival time, dose: 50.0 mg/kg/injection, schedule: Q04DX003 (ip), vehicle: saline 101 % of control | [15] 109 % of control | [16] 101 % of control | [17] 96 % of control | [18] 101 % of control

COC1c2ccccc2C=CN1c1ccc([N+](=O)[O-])cc1[N+](=O)[O-] (stereo not drawn)
inactive: [25] 110 % of control | [26] 104 % of control | [27] 108 % of control

COc1ccc(NC(=O)Nc2cc([N+](=O)[O-])ccc2C)c(OC)c1
inactive: [12] 92 % of control | [13] 108 % of control | [14] 92 % of control

Nc1ccccc1SC1CC(=O)N(c2ccc(Br)cc2Cl)C1=O (stereo not drawn)
inactive: endpoint: mean survival time, dose: 50.0 mg/kg/injection, schedule: Q01DX009 (ip), vehicle: Klucel (hydroxypropylcellulose) (HPC) 90 % of control and 92 % of control | [28] 91 % of control | [25] 98 % of control | [29] 93 % of control and 96 % of control and 91 % of control | [26] 93 % of control | [30] 96 % of control | [27] 93 % of control

C[Si](C)(C)Oc1cccc([Si](C)(C)C)c1
inactive: [7] 97 % of control | [8] 95 % of control | [9] 92 % of control

O=C(COc1ccc(Cl)cc1Cl)NCCSCc1ccccc1
inactive: [28] 91 % of control | [30] 89 % of control

NCC1OC(OC2C(N)CC(N)C(O)C2OC2OC(CO)C(O)C2O)C(N)C(O)C1O (stereo not drawn)
inactive: endpoint: mean survival time, dose: 75.0 mg/kg/injection, schedule: Q01DX001 (ip), vehicle: saline 92 % of control | endpoint: mean survival time, dose: 75.0 mg/kg/injection, schedule: Q01DX009 (ip), vehicle: saline 98 % of control | [4] 100 % of control | [16] 100 % of control | endpoint: mean survival time, dose: 150.0 mg/kg/injection, schedule: Q01DX001 (ip), vehicle: saline 97 % of control | endpoint: mean survival time, dose: 150.0 mg/kg/injection, schedule: Q01DX009 (ip), vehicle: saline 96 % of control | [5] 100 % of control | [18] 95 % of control | endpoint: mean survival time, dose: 300.0 mg/kg/injection, schedule: Q01DX001 (ip), vehicle: saline 93 % of control | endpoint: mean survival time, dose: 300.0 mg/kg/injection, schedule: Q01DX009 (ip), vehicle: saline 98 % of control | [6] 100 % of control | [19] 95 % of control

CSc1nc2c(c(=O)[nH]1)C1C=C(C)CCC1C(C)(C)C2 (stereo not drawn)
inactive: [12] 98 % of control | [13] 96 % of control

COc1ccc(C)cc1NC(=O)C(Br)C(Br)C(=O)O (stereo not drawn)
inactive: [28] 100 % of control | [29] 97 % of control | [30] 96 % of control

CC(=O)Nc1ccc(OCCOc2cccc(C)c2)cc1
inactive: [10] 103 % of control | [11] 100 % of control | endpoint: mean survival time, dose: 400.0 mg/kg/injection, schedule: Q01DX001 (ip), vehicle: Klucel (hydroxypropylcellulose) (HPC) 105 % of control

[I][Hg][CH2]C1COC([CH2][Hg][I])CO1 (stereo not drawn)
inactive: endpoint: mean survival time, dose: 6.25 mg/kg/injection, schedule: Q01DX010 (ip), vehicle: saline 98 % of control | [22] 97 % of control and 100 % of control | endpoint: mean survival time, dose: 12.5 mg/kg/injection, schedule: Q01DX010 (ip), vehicle: saline 106 % of control | [23] 96 % of control and 101 % of control | endpoint: mean survival time, dose: 25.0 mg/kg/injection, schedule: Q01DX010 (ip), vehicle: saline 110 % of control | [24] 93 % of control and 92 % of control | endpoint: mean survival time, dose: 50.0 mg/kg/injection, schedule: Q01DX010 (ip), vehicle: saline 97 % of control | [15] 93 % of control and 97 % of control | endpoint: median survival time, dose: 12.5 mg/kg/injection, schedule: Q01DX009 (ip), vehicle: saline 93 % of control | endpoint: median survival time, dose: 25.0 mg/kg/injection, schedule: Q01DX009 (ip), vehicle: saline 93 % of control | endpoint: median survival time, dose: 50.0 mg/kg/injection, schedule: Q01DX009 (ip), vehicle: saline 93 % of control

CC(C)(C1c2ccccc2NC(=O)c2ccccc21)[N+](=O)[O-] (stereo not drawn)
inactive: [20] 101 % of control | [21] 94 % of control

O=C(O)C(c1cc(Cl)co1)N1C(=O)c2ccccc2C1=O (stereo not drawn)
inactive: [25] 103 % of control | [26] 101 % of control | [27] 103 % of control

CCCCOC(=O)c1ccc(NC(=O)C(Cl)Cl)cc1
inactive: [16] 99 % of control | [18] 89 % of control | [19] 89 % of control

O=C(O)CCc1c2ccc(=O)c(O)c-2oc2c(O)c(O)ccc12
inactive: [16] 106 % of control | [18] 105 % of control | [19] 100 % of control

C1=C(c2ccccc2)c2c(c3ccccc3c3ccccc23)C(c2ccccc2)=CC1
inactive: endpoint: mean survival time, dose: 50.0 mg/kg/injection, schedule: Q01DX001 (ip), vehicle: carboxymethylcellulose (CMC) 100 % of control | [1] 100 % of control | [2] 94 % of control | [3] 94 % of control

O=C(O)c1ccccc1C(NC(=O)N1C(=O)C=CC1=O)NC(=O)N1C(=O)C=CC1=O
inactive: [1] 97 % of control | [2] 97 % of control | [3] 106 % of control
